What all share (format): cell-based
The test system of assay [1] is NCI-H1975 EGFR L858R/T790M cells. The assay can be described thus: Cell proliferation, NCI-H1975 EGFR L858R/T790M (CellTiter-Glo, 72 h).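 Also: viable cells quantified by luciferase-based ATP luminescence, proliferation expressed relative to DMSO-treated wells (100%) after subtracting a parallel plate read at the time of dosing.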 Conditions: Homo sapiens, NCI-H1975, 72 h, NCI-H1975, 72 h proliferation; read-out: EGFR L858R and T790M mutation GI50. On the technique in general: In ATP-based viability assays light output follows the ATP content of the culture.
The subject of a further assay is TMD-8 cells. The assay can be described thus: BTK (wt) cell proliferation, TMD-8 (CellTiter-Glo, 72 h).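 Also: viable cells quantified by ATP-based luminescence, proliferation expressed as percent of DMSO control after subtracting a time-zero baseline plate read at dosing.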 Conditions: Homo sapiens, TMD8, 72 h, TMD-8 cells, 72 h, CellTiter-Glo; read-out: BTK WT TMD-8 GI50.
For assay [2], the target named is T1, human EGFR exon 20 V769_D770insASV (Homo sapiens, UniProt P00533, INS769ASV).
T1 construct: expressed in transfected cells; host or cells: Ba/F3 (DSMZ ACC-300), lentiviral transduction, puromycin selection, IL3 depletion
Put plainly: EGFR Exon20 ASV insertion cellular phosphorylation inhibition (MSD pEGFR Y1068/total EGFR).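 Also: electrochemiluminescent readout on an MSD SECTOR Imager, IL3-independent transduced cells in medium with 1% FBS, compound concentration series at 37 °C and 5% CO2.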 Conditions: Ba/F3 EGFR ASV ins cells, 4 h compound, p-EGFR(Y1068)/total EGFR.

The next assay concerns DB cells. The assay can be described thus: BTK (wt) cell proliferation, DB (CellTiter-Glo, 72 h).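 Also: DB cells in 384-well plates given a dilution series of compound, viable cells read by ATP luminescence, growth expressed versus DMSO control after subtracting a time-zero plate reading.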 Conditions: Homo sapiens, DB, DB cells, CellTiter-Glo, read-out: Non-BCR activated DB GI50.
Assay [3] deals with T2, human Her2 exon 20 insertion mutation YVMA (Homo sapiens, UniProt P04626, INS775YVMA).
T2 construct: expressed in transfected cells; host or cells: NIH-3T3, lentiviral transduction, puromycin selection
Put plainly: Her2 Exon 20 YVMA insertion cellular phosphorylation inhibition (MSD p-Her2 Y1248/total Her2).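 Also: lentivirally transduced NIH-3T3 cells in 1% FBS medium, electrochemiluminescent MSD read-out, graded compound concentrations at 37 °C.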 The conditions noted are these: Her2 YVMAins cells, 4 h compound.

In assay [4] the target is T3, human EGFR exon 20 H773_V774insNPH (Homo sapiens, UniProt P00533, INS773NPH).
T3 construct: host or cells: Ba/F3
Put plainly: EGFR Exon20 NPH insertion cellular phosphorylation inhibition (MSD pEGFR Y1068/total EGFR).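 Also: IL3-independent Ba/F3 cells with constitutively phosphorylated EGFR, compound exposure at 37 °C under 5% CO2, electrochemiluminescent MSD measurement of the p-EGFR to total EGFR ratio.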 The conditions noted are these: Ba/F3 EGFR NPH ins cells, 4 h compound, p-EGFR(Y1068)/total EGFR.
Experimental: One day before the test, WT or mutant cells were seeded in 96 well plates at appropriate concentrations with corresponding growth media supplemented with 1% FBS, and incubated overnight. The next day, tested compounds at a series of concentrations were added into each individual well of the plates, and the plates were incubated for 4 h at 37° C. with 5% CO2.
The EGFR (Y1068) phosphorylation level (activity) of cells in each well were then measured with MSD kit named “MULTI-SPOT®96 4-Spot HB Prototype EGFR Triplex [sequence]: pEGFR(Tyr1068),pEGFR(Tyr1173), Total EGFR” according to the manufacturer’s instruction (MESO SCALE DISCOVERY, Cat# N45ZB-1). The assay is an electrochemiluminescent method for determining both phosphorylated and total EGFR of cells with an MSD SECTOR® Imager and the ratio of p-EGFR/total EGFR can be generated by the machine.

The test system of a further assay is OCI-LY-10 cells. Put plainly: BTK (wt) cell proliferation, OCI-LY-10 (CellTiter-Glo, 72 h).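 Also: viable cells quantified via cellular ATP luminescence, proliferation given as percent of DMSO control after subtracting a duplicate plate read at time of dosing.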 The conditions noted are these: Homo sapiens, OCI-Ly10, 72 h, OCI-LY-10 cells, 72 h, CellTiter-Glo; read-out: BTK WT OCI-LY-10 GI50.
In assay [5] the test system is Her2 exon 20 insertion YVMA transduced NIH-3T3 cell line. The assay can be described thus: Cell proliferation, Her2 YVMAins NIH-3T3 (CellTiter-Glo, 72 h).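 Also: viable cells quantified by ATP luminescence, growth over a day-zero baseline plate expressed as percent of DMSO control growth, compound dilution series in 10% FBS medium.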 Conditions: Mus musculus, NIH3T3, 72 h, Her2 YVMAins cells, 72 h proliferation; read-out: Her2 Exon 20 YVMA insertion GI50.
A further assay addresses T4, WT EGFR (Homo sapiens, UniProt P00533).
T4 construct: host or cells: A-431
The assay can be described thus: WT EGFR cellular phosphorylation inhibition in A-431 (hEGF stimulated, MSD).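 Also: electrochemiluminescence read-out of EGFR Tyr1068 phosphorylation expressed as ratio to total EGFR, cells kept in medium with 1% FBS, compounds tested as a concentration series.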 Conditions: A431 cells, 4 h compound, then 100 ng/ml hEGF 10 min.

The target of the next assay is T5, EGFR L858R&T790M (Homo sapiens, UniProt P00533, L858R/T790M).
T5 construct: host or cells: NCI-H1975
Put plainly: EGFR L858R and T790M cellular phosphorylation inhibition in NCI-H1975 (MSD).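 Also: phosphorylated and total EGFR detected by electrochemiluminescence, cells exposed to compound in medium containing 1% FBS at 37 °C.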 The conditions noted are these: NCI-H1975 cells, 4 h compound, p-EGFR(Y1068)/total EGFR; read-out: EGFR L858R and T790M mutation IC50.

Another assay relates to Ba/F3 EGFR NPH ins cells. The assay can be described thus: Cell proliferation, Ba/F3 EGFR NPH ins (CellTiter-Glo, 72 h).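 Also: IL3-independent cells carrying constitutively phosphorylated EGFR, compound dilution series, viable cells quantified by ATP luminescence, growth relative to DMSO wells after subtracting pre-dosing (day 0) baseline.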 The conditions noted are these: Ba/F3 EGFR, 72 h, Ba/F3 EGFR NPH ins, 72 h proliferation; read-out: EGFR Exon20 NPH insertion GI50.
The next assay deals with WT EGFR cell line A-431. Put plainly: Cell proliferation, WT EGFR A431 (CellTiter-Glo, 72 h).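 Also: proliferation from a luminescent ATP viability signal, expressed as 100 × (treated minus time-zero plate) over (DMSO control minus time-zero plate), cells grown with 10% FBS.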 Conditions: Homo sapiens, A-431, 72 h, A431, 72 h proliferation; read-out: EGFR WT A431 GI50.
For the next assay, the system named is Ba/F3 EGFR ASV ins cells. Put plainly: Cell proliferation, Ba/F3 EGFR ASV ins (CellTiter-Glo, 72 h).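 Also: IL3-independent Ba/F3 cells transduced with EGFR V769_D770insASV, cellular ATP luminescence after compound exposure, growth relative to DMSO control with the day-0 baseline reading subtracted.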 Conditions: Ba/F3 EGFR, 72 h, Ba/F3 EGFR ASV ins, 72 h proliferation; read-out: EGFR Exon20 ASV insertion GI50.
A further assay deals with Ri-1 cells. The assay can be described thus: BTK (wt) cell proliferation, Ri-1 (CellTiter-Glo, 72 h).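 Also: viable cells quantified as cellular ATP luminescence, proliferation normalized to a time-zero plate and the DMSO control, compounds tested across a dilution series.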 Conditions: Ri-1, 72 h, Ri-1 cells, 72 h, CellTiter-Glo; read-out: BTK WT Ri-1 GI50.

These results are taken from patent publication US20230293535A1, “ERBB/BTK INHIBITORS” (Dizal (Jiangsu) Pharmaceutical Co., Ltd., priority 2018, published 2023).

T5 sequence (P00533 25-1210 T790M/L858R): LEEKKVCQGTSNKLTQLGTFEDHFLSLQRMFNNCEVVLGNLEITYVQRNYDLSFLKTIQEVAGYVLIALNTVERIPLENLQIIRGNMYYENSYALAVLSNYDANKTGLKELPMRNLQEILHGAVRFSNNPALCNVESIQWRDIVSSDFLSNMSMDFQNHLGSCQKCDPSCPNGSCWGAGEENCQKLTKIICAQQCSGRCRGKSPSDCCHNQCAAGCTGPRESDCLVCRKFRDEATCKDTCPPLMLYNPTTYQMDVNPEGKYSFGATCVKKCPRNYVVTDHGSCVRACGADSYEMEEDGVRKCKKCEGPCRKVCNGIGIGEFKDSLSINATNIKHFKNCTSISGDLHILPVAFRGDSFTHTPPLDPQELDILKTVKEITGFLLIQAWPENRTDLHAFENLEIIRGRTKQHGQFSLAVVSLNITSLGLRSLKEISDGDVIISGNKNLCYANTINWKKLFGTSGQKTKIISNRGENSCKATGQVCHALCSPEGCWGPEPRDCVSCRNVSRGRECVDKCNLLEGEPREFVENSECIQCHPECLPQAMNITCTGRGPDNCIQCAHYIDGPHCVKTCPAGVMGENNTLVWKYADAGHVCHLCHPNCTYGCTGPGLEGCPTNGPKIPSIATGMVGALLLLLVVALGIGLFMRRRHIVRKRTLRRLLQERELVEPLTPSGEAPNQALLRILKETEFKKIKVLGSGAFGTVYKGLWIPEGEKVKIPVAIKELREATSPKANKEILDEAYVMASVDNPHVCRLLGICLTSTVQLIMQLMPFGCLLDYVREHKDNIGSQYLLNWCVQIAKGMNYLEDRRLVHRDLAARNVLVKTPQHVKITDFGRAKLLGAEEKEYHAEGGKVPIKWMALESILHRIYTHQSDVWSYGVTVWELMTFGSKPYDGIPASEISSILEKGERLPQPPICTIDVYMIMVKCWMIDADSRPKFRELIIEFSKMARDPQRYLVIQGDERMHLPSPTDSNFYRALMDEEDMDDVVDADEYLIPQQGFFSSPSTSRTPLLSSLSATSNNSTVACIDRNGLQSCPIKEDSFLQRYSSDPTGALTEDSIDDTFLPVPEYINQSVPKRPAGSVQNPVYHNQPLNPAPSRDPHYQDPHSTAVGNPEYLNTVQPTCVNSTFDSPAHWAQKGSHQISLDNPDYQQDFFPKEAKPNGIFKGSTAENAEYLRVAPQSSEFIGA
T2 sequence (P04626 with tags, fused parts or gaps INS775YVMA): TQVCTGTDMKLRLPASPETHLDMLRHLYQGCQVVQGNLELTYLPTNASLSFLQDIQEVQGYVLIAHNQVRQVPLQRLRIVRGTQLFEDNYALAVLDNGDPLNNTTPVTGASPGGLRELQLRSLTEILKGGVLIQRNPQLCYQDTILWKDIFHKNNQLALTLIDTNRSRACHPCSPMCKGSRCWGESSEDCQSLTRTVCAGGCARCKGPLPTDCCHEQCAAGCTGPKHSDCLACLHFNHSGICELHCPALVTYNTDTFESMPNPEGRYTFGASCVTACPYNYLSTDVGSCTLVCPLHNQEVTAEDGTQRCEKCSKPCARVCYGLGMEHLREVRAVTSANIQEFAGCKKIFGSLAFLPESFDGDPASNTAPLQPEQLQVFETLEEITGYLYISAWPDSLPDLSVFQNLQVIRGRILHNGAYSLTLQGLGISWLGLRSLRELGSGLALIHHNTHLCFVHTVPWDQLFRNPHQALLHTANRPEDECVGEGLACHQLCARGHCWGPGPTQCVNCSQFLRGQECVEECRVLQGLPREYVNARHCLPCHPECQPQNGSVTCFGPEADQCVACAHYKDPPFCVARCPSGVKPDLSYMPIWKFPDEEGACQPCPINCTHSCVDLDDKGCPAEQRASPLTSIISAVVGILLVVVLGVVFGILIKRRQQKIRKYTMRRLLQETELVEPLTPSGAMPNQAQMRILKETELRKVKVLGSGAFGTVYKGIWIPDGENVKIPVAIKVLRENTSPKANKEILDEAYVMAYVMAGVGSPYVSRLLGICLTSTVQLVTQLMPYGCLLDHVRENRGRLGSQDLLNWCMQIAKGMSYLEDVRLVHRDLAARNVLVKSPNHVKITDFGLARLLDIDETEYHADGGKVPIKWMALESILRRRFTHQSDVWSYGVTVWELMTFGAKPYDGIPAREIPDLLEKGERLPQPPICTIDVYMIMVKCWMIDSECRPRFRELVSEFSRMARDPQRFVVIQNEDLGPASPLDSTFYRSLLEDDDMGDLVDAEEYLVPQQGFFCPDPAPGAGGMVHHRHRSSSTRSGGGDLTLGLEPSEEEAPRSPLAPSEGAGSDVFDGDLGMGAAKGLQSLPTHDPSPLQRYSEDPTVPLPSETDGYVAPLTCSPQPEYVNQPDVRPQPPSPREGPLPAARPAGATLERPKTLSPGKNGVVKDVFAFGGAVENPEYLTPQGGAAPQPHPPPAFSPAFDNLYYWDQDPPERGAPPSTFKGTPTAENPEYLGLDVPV
T4 sequence (P00533 25-1210): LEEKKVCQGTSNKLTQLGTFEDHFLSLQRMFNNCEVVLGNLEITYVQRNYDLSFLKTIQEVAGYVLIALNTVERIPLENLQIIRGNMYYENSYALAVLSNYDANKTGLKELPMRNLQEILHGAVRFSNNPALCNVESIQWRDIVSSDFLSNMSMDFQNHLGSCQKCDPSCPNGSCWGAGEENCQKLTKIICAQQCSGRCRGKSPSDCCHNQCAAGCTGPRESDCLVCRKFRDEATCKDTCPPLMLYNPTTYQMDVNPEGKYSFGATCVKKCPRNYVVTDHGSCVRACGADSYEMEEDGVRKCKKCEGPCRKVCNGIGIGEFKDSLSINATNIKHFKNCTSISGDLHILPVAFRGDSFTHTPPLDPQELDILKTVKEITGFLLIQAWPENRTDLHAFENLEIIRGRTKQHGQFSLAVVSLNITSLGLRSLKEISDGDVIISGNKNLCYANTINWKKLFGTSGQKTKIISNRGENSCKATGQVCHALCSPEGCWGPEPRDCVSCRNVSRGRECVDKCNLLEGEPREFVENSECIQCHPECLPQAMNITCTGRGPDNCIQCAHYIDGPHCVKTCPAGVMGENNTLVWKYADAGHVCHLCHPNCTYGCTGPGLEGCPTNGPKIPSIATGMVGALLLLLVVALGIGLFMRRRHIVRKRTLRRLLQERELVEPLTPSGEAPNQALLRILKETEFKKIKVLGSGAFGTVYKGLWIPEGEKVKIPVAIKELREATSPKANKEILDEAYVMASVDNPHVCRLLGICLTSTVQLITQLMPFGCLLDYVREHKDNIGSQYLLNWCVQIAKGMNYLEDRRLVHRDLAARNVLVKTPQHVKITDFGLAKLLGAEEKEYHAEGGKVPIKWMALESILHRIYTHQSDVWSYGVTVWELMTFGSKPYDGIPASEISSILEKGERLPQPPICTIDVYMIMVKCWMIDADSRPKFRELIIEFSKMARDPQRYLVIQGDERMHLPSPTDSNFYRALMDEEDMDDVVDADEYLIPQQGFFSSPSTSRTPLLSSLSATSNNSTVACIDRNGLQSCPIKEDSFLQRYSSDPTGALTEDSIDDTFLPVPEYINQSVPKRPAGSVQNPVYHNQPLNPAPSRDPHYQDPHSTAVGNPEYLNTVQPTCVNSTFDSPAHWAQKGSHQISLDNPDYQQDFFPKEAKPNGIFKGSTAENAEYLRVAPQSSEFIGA
T1 sequence (P00533 with tags, fused parts or gaps INS769ASV): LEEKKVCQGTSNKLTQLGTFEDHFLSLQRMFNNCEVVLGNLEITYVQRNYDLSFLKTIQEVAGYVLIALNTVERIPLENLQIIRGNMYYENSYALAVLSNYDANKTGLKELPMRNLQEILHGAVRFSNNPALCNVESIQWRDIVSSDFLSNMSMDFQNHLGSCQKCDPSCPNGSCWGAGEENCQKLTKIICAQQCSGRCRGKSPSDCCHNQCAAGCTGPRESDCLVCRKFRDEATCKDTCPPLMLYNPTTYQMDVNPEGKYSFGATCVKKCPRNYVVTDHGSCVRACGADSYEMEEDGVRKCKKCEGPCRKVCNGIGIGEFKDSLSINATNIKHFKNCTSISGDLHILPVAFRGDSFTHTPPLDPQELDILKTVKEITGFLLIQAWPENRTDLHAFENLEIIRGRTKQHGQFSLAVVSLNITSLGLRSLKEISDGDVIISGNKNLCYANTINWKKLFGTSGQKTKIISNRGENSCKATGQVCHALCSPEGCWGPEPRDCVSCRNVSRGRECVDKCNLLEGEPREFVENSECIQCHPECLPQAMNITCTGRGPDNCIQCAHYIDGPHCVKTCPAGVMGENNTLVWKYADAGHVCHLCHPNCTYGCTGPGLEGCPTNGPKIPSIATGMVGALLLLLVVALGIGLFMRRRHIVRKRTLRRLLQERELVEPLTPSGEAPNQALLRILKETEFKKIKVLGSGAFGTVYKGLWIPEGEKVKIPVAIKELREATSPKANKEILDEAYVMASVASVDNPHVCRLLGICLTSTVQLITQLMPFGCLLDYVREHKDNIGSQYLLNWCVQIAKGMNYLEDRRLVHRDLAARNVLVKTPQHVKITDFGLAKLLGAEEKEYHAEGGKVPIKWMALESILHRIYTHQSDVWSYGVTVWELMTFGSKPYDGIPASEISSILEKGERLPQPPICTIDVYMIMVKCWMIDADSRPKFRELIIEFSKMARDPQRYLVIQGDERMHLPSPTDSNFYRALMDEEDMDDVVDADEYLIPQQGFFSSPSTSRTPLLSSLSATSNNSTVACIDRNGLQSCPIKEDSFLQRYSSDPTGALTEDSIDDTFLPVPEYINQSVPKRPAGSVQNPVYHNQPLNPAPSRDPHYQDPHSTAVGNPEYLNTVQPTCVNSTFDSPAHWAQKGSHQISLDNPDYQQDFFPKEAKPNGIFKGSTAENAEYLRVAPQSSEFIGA
Experimental for Ba/F3 EGFR ASV ins cells: WT or mutant cells were seeded in 384 well plates at appropriate concentrations with corresponding growth media supplemented with 10% FBS, for each experiment, identical plates were prepared in duplicates, and the plates were incubated overnight. On the next day, one of each duplicated plates was dosed with tested compounds at a series of concentrations, and another one of the duplicated plate was analysied for G0 value. The dosed plates were incubate for another 72 h at 37° C. with 5% CO2 and the number of viable cells in each well of the G0 plates or the dosed plates were measured by CellTiter-Glo® Luminescent Cell Viability Assay (Promega). This assay is a luminescent method for determining the number viable cells through measurement of cellular ATP concentration by detection of luciferase activity. Detection reagents (15 µl) was dispensed into per well, and the plates were incubate for 30 min at room temperature. Then, the luminescence in each well was measured using the Envision plate reader (PerkinElmer). The percentage of proliferation was calculated based on the formula: %Proliferation= 100 × (G3 value of sample well-Go value)/(G3 value of DMSO control-Go value).
Experimental for DB cells: OCI-LY-10 at 3,750 cells/well, TMD-8 and Ri-1 at 2,000 cells/well, and DB at 1,250 cells/well, respectively, were sorted into 384-well plates in RPMI1640 medium with 10% FBS. After overnight incubation, all cells were incubated with compound at a series of concentrations. Meanwhile, a duplicated plate of each cell line was prepared for measuring G0 value. The dosed plates were further incubated for 72 hours and the number of viable cells was measured by CellTiter-Glo® Luminescent Cell Viability Assay (Promega), a luminescent method for determining the number of viable cells through measurement of cellular ATP concentration using Envision plate reader (PerkinElmer). The percentage of proliferation was calculated as: % Proliferation = 100 × (G3 value of sample well - G0 value)/(G3 value of DMSO control - G0 value).

A word on the GI50: it is the concentration giving 50% growth inhibition. By IC50 is commonly meant the concentration that inhibits the measured activity by half. `C=CC(=O)Nc1cc(Nc2ncnc(Nc3cc(Cl)c(F)cc3C(C)(C)O)n2)c(OC)cc1N(C)C[C@H]1CCCN1C` [Compound 30, (R)-N-(5-(4-(5-chloro-4-fluoro-2-(2-hydroxypropan-2-yl)phenylamino)-1,3,5-triazin-2-ylamino)-4-methoxy-2-(methyl((1-methylpyrrolidin-2-yl)methyl)amino)phenyl) acrylamide]: the concentration for 50% growth inhibition (GI50) was 3.7 nM in [1]; 17.8 nM in the assay on TMD-8 cells; more than 3000 nM in the assay with DB cells; 13.1 nM with OCI-LY-10 cells; 47.5 nM in assay [5]; 19.3 nM in the assay on Ba/F3 EGFR NPH ins cells. Besides, the values for the 50% growth inhibitory concentration (GI50) with WT EGFR cell line A-431, with Ba/F3 EGFR ASV ins cells and in the assay with Ri-1 cells were 12.4 nM, 25.9 nM and 28.6 nM, respectively. For the same compound, the half-inhibitory concentration (IC50) in [2] was determined as 5.7 nM; in assay [3] it was 5.5 nM; in assay [4], 11.1 nM; at WT EGFR, 13.2 nM; on EGFR L858R&T790M it was 0.5 nM.

Take `C=CC(=O)Nc1cc(Nc2ncnc(Nc3cc(Cl)c(F)cc3C(C)(O)CC)n2)c(OC)cc1N1CC[C@@H]1CN(C)C` (stereo partly drawn) [Compound 56, N-(5-(4-(5-chloro-4-fluoro-2-(2-hydroxybutan-2-yl)phenylamino)-1,3,5-triazin-2-ylamino)-2-((R)-2-((dimethylamino)methyl)azetidin-1-yl)-4-methoxyphenyl)acrylamide]: the 50% growth inhibitory concentration (GI50) in assay [1] is 4.2 nM; in the assay on TMD-8 cells, 7.07 nM; with DB cells, more than 3000 nM; in the assay on OCI-LY-10 cells, 14.6 nM; in assay [5] it was 76.6 nM; in the assay on Ba/F3 EGFR NPH ins cells it was 63.8 nM. For the same compound, the concentration for 50% growth inhibition (GI50) is 14.3 nM with WT EGFR cell line A-431, 45.1 nM with Ba/F3 EGFR ASV ins cells and 13.4 nM in the assay on Ri-1 cells. The half-maximal inhibitory concentration (IC50) stood at 15.5 nM in assay [2]; 7.8 nM in assay [3]; 17.8 nM in assay [4]; 35.4 nM at WT EGFR; 1 nM at EGFR L858R&T790M.

In the case of `C=CC(=O)Nc1cc(Nc2ncnc(Nc3cc(F)c(C4CC4)cc3C(C)(C)O)n2)c(OC)cc1N1CC[C@@H]2CN(C)C[C@@H]21` [Compound 45, N-(5-(4-(4-cyclopropyl-5-fluoro-2-(2-hydroxypropan-2-yl)phenylamino)-1,3,5-triazin-2-ylamino)-4-methoxy-2-((3aR,6aR)-5-methylhexahydropyrrolo[3,4-b]pyrrol-1(2H)-yl)phenyl)acrylamide], the GI50 was 1.1 nM in [1]; 2.33 nM in the assay on TMD-8 cells; more than 3000 nM with DB cells; 5.25 nM in the assay with OCI-LY-10 cells; 30.8 nM in assay [5]; 17.8 nM with Ba/F3 EGFR NPH ins cells. For the same compound, the results for the 50% growth inhibitory concentration (GI50) in the assay with WT EGFR cell line A-431, in the assay with Ba/F3 EGFR ASV ins cells and with Ri-1 cells were 4.3 nM, 13.6 nM and 11.6 nM, respectively. Besides, the IC50 in assay [2] came out at 6.5 nM; in [3], 3 nM; in assay [4], 2.9 nM; at WT EGFR it was 7.6 nM; at EGFR L858R&T790M, 0.3 nM.

Regarding `C=CC(=O)Nc1cc(Nc2ncnc(Nc3cc(F)c(F)cc3C(C)(C)O)n2)c(OC)cc1N1CC[C@@H](N(C)C)C1` [Compound 27, (R)-N-(5-(4-(4,5-difluoro-2-(2-hydroxypropan-2-yl)phenylamino)-1,3,5-triazin-2-ylamino)-2-(3-(dimethylamino)pyrrolidin-1-yl)-4-methoxyphenyl)acry lamide], the GI50 in [1] is 5.2 nM; with TMD-8 cells, 11.6 nM; in the assay with DB cells, more than 3000 nM; with OCI-LY-10 cells it was 17.7 nM; in assay [5] it was 106 nM; in the assay on Ba/F3 EGFR NPH ins cells, 57.9 nM. In addition, the 50% growth inhibitory concentration (GI50) is 26.2 nM with WT EGFR cell line A-431, 64.7 nM in the assay on Ba/F3 EGFR ASV ins cells and 120 nM in the assay on Ri-1 cells. In addition, the IC50 in assay [2] came out at 19.4 nM; in assay [3], 15.6 nM; in assay [4], 28.3 nM; on WT EGFR, 34.8 nM; at EGFR L858R&T790M, 0.7 nM.

Consider `C=CC(=O)Nc1cc(Nc2ncc(Cl)c(Nc3cc(Cl)c(F)cc3C(C)(C)O)n2)c(OC)cc1N1CC[C@@H](N(C)C)C1` [Compound 74, (R)-N-(5-(5-chloro-4-(5-chloro-4-fluoro-2-(2-hydroxypropan-2-yl)phenylamino)pyrimidin-2-ylamino)-2-(3-(dimethylamino)pyrrolidin-1-yl)-4-methoxyphenyl) acrylamide], for which the GI50 was 6 nM in assay [1]; 9.1 nM in the assay with TMD-8 cells; more than 3000 nM in the assay with DB cells; 3.9 nM with OCI-LY-10 cells; 155 nM in assay [5]; 76.8 nM in the assay on Ba/F3 EGFR NPH ins cells. Besides, the GI50 is 43 nM in the assay on WT EGFR cell line A-431, 86.6 nM in the assay on Ba/F3 EGFR ASV ins cells and 82 nM in the assay on Ri-1 cells. Moreover, the IC50 in assay [2] amounted to 34.4 nM; in assay [3], 52.6 nM; in assay [4] it was 65.1 nM; at WT EGFR it was 133 nM; on EGFR L858R&T790M, 0.4 nM.

For the compound `C=CC(=O)Nc1cc(Nc2ncnc(Nc3cc4cc[nH]c4cc3C(C)(C)O)n2)c(OC)cc1N(C)CCN(C)C` [Compound 95, N-(2-((2-(dimethylamino)ethyl)(methyl)amino)-5-(4-(6-(2-hydroxypropan-2-yl)-1H-indol-5-ylamino)-1,3,5-triazin-2-ylamino)-4-methoxyphenyl)acrylamide], the 50% growth inhibitory concentration (GI50) is 3.7 nM in [1]; 1.16 nM in the assay with TMD-8 cells; more than 3000 nM with DB cells; 0.29 nM in the assay on OCI-LY-10 cells; 15.8 nM in assay [5]; 20.5 nM with Ba/F3 EGFR NPH ins cells. For the same compound, the GI50 with WT EGFR cell line A-431 worked out at 2.9 nM; in the assay on Ba/F3 EGFR ASV ins cells, 16 nM; in the assay with Ri-1 cells it was 971 nM. Moreover, the 50% inhibitory concentration (IC50) in assay [2] worked out at 6.2 nM; in assay [3], 2.2 nM; in [4], 7.1 nM; against WT EGFR, 3.5 nM; at EGFR L858R&T790M, 0.3 nM.

Regarding `C=CC(=O)Nc1cc(Nc2ncnc(Nc3cc(F)c(F)cc3C(C)(C)O)n2)c(OC)cc1N(C)CCN(C)C` [Compound 4, N-(5-(4-(4,5-difluoro-2-(2-hydroxypropan-2-yl)phenylamino)-1,3,5-triazin-2-ylamino)-2-((2-(dimethylamino)ethyl)(methyl)amino)-4-methoxyphenyl)ac rylamide], the GI50 was 6.9 nM in [1]; 77.1 nM in the assay on TMD-8 cells; more than 3000 nM with DB cells; 8.9 nM with OCI-LY-10 cells; 31 nM in [5]; 32.2 nM in the assay with Ba/F3 EGFR NPH ins cells. Further, the GI50 with WT EGFR cell line A-431 was 15.7 nM; with Ba/F3 EGFR ASV ins cells it was 20.7 nM; in the assay with Ri-1 cells it was 61.4 nM. The IC50 in assay [2] amounted to 6.1 nM; in assay [3], 5.5 nM; in assay [4], 8.2 nM; at WT EGFR, 11.1 nM; on EGFR L858R&T790M, 0.4 nM.

For `C=CC(=O)Nc1cc(Nc2ncnc(Nc3cc(Cl)c(F)cc3C(C)(C)O)n2)c(OC)cc1N1CC[C@H](N(C)C)C1` [Compound 60, (S)-N-(5-(4-(5-chloro-4-fluoro-2-(2-hydroxypropan-2-yl)phenylamino)-1,3,5-triazin-2-ylamino)-2-(3-(dimethylamino)pyrrolidin-1-yl)-4-methoxyphenyl)acrylamide], the 50% growth inhibitory concentration (GI50) in [1] is 2.5 nM; in the assay with TMD-8 cells it was 11.5 nM; in the assay on DB cells, more than 3000 nM; with OCI-LY-10 cells, 13.5 nM; in assay [5] it was 102 nM; in the assay on Ba/F3 EGFR NPH ins cells, 48.6 nM. For the same compound, the concentration for 50% growth inhibition (GI50) amounted to 25 nM in the assay with WT EGFR cell line A-431, 76.3 nM in the assay with Ba/F3 EGFR ASV ins cells and 38.9 nM with Ri-1 cells. The half-maximal inhibitory concentration (IC50) was 22.3 nM in assay [2]; 11.6 nM in [3]; 28.9 nM in assay [4]; 50.7 nM against WT EGFR; 1.3 nM at EGFR L858R&T790M.
